Experimental findings from US20210253575A1, “PYRROLIDINE AMINE COMPOUNDS FOR THE TREATMENT OF AUTOIMMUNE DISEASE” (Hoffmann-La Roche Inc., priority 2018, published 2021) are described below.

One may read the IC50 as the concentration that inhibits the measured activity by half. A lower IC50 goes with greater potency.

The assay addresses T1, human TLR8 (Homo sapiens, UniProt Q9NR97).
T1 sequence (Q9NR97 27-1041): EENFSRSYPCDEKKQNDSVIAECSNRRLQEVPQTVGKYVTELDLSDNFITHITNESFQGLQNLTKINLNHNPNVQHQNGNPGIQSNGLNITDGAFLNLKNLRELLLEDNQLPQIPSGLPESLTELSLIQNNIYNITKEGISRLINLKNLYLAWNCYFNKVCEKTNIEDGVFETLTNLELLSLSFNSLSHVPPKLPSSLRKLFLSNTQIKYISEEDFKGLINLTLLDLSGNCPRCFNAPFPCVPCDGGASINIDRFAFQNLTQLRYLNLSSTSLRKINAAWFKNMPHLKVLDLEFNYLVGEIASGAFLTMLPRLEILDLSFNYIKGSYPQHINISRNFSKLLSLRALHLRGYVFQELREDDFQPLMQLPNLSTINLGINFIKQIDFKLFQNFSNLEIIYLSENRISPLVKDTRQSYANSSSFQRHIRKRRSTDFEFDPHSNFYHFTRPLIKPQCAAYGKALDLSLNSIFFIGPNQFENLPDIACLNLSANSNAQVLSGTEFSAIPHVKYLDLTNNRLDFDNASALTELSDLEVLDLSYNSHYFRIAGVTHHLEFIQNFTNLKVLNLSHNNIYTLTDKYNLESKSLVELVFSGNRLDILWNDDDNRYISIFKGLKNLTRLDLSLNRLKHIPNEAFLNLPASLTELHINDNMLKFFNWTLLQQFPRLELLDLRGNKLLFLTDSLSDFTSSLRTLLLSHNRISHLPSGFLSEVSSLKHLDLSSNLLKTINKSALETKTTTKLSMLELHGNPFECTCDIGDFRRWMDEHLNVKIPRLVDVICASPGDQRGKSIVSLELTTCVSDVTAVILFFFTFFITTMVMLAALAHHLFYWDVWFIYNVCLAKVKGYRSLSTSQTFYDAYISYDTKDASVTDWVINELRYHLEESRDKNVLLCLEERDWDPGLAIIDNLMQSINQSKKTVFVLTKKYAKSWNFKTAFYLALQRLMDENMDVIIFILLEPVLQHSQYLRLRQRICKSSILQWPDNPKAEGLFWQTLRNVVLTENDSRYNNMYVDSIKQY
As to the kind of experiment: HEK293-Blue-hTLR-8 cells assay (SEAP reporter, R848 stimulation). The class given is cell-based. The conditions noted are these: HEK293-Blue-hTLR8 cells, R848 ligand, 20 hrs incubation. In short, it runs like this: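 Antagonism was measured in HEK293-Blue-hTLR8 cells with an NF-κB/AP-1-driven SEAP reporter. Cells were stimulated with R848 (10 μL of 60 uM stock) alongside compound (1% DMSO) for 20 hrs at 37° C. Supernatant SEAP was read with QUANTI-Blue after 2 hrs, absorbance at 620-655 nm.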
Regarding `N#Cc1ccc(N2CC(CN3CCNCC3)C3(CC3)C2)c2nccnc12` (centres unmarked) [Example 3, 8-[7-(piperazin-1-ylmethyl)-5-azaspiro[2.4]heptan-5-yl]quinoxaline-5-carbonitrile], the IC50 was 12 nM.

`CN1CCC2(CCN(C[C@H]3CN(c4ccc(C#N)c5nccnc45)C[C@@H]3C(F)(F)F)C2)C1` (stereo partly drawn) [Example 84, 8-[(3S,4R)-3-[(7-methyl-2,7-diazaspiro[4.4]nonan-2-yl)methyl]-4-(trifluoromethyl)pyrrolidin-1-yl]quinoxaline-5-carbonitrile]: the midpoint of inhibition, the IC50, lay at 57 nM.

Take `N#Cc1ccc(N2CC(CN3CC4CCC(C3)C4N)C3(CC3)C2)c2nccnc12` (centres unmarked) [Example 4, 8-[7-[(8-Amino-3-azabicyclo[3.2.1]octan-3-yl)methyl]-5-azaspiro[2.4]heptan-5-yl]quinoxaline-5-carbonitrile]: half-maximal inhibition (IC50) was put at 38 nM.

On to `CC1(CN)CCN(C[C@H]2CN(c3ccc(C#N)c4nccnc34)C[C@@H]2C(F)(F)F)C1` (stereo partly drawn) [Example 85, 8-[(3S,4R)-3-[[3-(aminomethyl)-3-methyl-pyrrolidin-1-yl]methyl]-4-(trifluoromethyl)pyrrolidin-1-yl]quinoxaline-5-carbonitrile], for which 75 nM corresponded to half-maximal inhibition (IC50). Compared with the last compound, the IC50 is about 2-fold higher.

In turn, `CN(C)[C@@H]1CCN(C[C@H]2CN(c3ccc(C#N)c4nccnc34)C[C@@H]2C(F)(F)F)C1` [Example 83, 8-[(3S,4R)-3-[[(3R)-3-(dimethylamino)pyrrolidin-1-yl]methyl]-4-(trifluoromethyl)pyrrolidin-1-yl]quinoxaline-5-carbonitrile] registered a 50% inhibitory concentration (IC50) of 65 nM.
